According to article PMC5156471, “Complementary pharmacological and toxicological characterization data on the pharmacological profile of N-(2,6-dichlorophenyl)-2-(4-methyl-1-piperidinyl) acetamide” (Data in Brief, 2016):
Like-named read-outs stand apart in the source and are kept apart here.

Assays:
[1] = tested on: bone marrow polychromatic erythrocytes; type: in vivo, mice
Method: This test was carried out following standard protocols, [5]. […] Animals were sacrificed 24 h later and the bone marrow from both femurs was flushed out using 2 mL of saline and centrifuged for 5 min at 3000 rpm. The supernatant was discarded, and the pellet was re-suspended in 0.3 mL of saline. Of this smears were made on glass slides. The slides were fixed with methanol and stained with 10% Wright–Giemsa stain. Cells were blindly scored using a light microscope at 100 X magnification. For the analysis of micronucleated cells, 1000 polychromatic erythrocytes (PCE) per animal were scored. In order to assess the cytotoxic effects of compounds, the ratio of PCE to normochromatic erythrocytes (NCE) was determined in 1000 erythrocytes, [5]. The results are presented as the mean number of micronucleated polychromatic erythrocytes (MNPCE) or the ratio PCE:NCE in individual mice (two smears per animal)±SEM for five animals per group (Table 3).

[2] = tested on: normotensive rats; assay: Cardiovascular response in normotensive conscious rats (tail cuff method); type: in vivo; conditions: 50 and 80 mg/kg, p.o.
Method: The hypotensive activity was determined using a standard protocol of Avila-Villarreal et al.. This study was conducted in normotensive rats. […] Systolic and diastolic blood pressure as well as heart rate were recorded before and after treatment at 0, 1, 3, 5 and 7 h by the tail cuff method using a Panlab non-invasive blood pressure system for rodents and dogs (Harvard Apparatus). Percent of reduction in heart rate (HR), systolic blood pressure (SBP) or diastolic blood pressure (DBP) were calculated using diltiazem as control (Fig. 2).

[3] = tested on: brine shrimp larvae (Artemia salina L.); assay: Artemia saline lethality test; type: in vivo
[4] = tested on: ICR male mice; assay: Acute toxicity in mice by the Lorke method; conditions: for Dead mice: i.p., dead/treated, observed 14 days
Method: (§1) Experiments were performed on ICR male mice by the Lorke method. Doses were selected according this method. In both phases, mice were observed daily for 14 days for mortality, toxic effects and behavioral changes. Restlessness, respiratory distress, seizures, diarrhea, motor activity, posture and reflexes were qualitatively determined. Body weight was also monitored. The internal organs (including the stomach, heart, lung, liver, and kidneys) were removed at the end of experiment and visually examined for lesions.

[5] = Acute toxicity in mice by the Lorke method; conditions: male, ICR, mouse, in vivo, ip
Method: as §1

[6] = mice, i.p. (LIA, lidocaine 100 mg/kg; cyclophosphamide 40 mg/kg), 24 h, mean±SEM, five animals

SMILES | MNPCE per 1000 PCE [1, 6] | PCE:NCE [1, 6] | Cardiovascular responses (heart rate, systolic and diastolic blood pressure; in words) [2] | LC50 ([3]; Artemia saline L., 24 h, 100-1000 ppm in triplicate) | Toxicity in Brine Ship (in words) ([3]; in vivo) | MNPCE per 1000 PCE ([1]; male, ICR, mouse, in vivo) | PCE:NCE ([1]; male, ICR, mouse, in vivo) | Genotoxicity in mice (in words) ([1]; mouse, in vivo) | Dead mice ([4]; Phase I, 10 mg/kg) | Dead mice ([4]; Phase I, 100 mg/kg) | Dead mice ([4]; Phase I, 1000 mg/kg) | Dead mice ([4]; Phase II, 140 mg/kg) | Dead mice ([4]; Phase II, 225 mg/kg) | Dead mice ([4]; Phase II, 370 mg/kg) | Dead mice ([4]; Phase II, 600 mg/kg) | Macroscopic damage of internal organs (stomach, heart, lung, liver, kidneys) ([4]; mice, visual examination at the end of experiment (14 days)) | Toxicity in mice (in words) ([4]; mouse, in vivo) | LD50 at 14 days [5]
O=P1(N(CCCl)CCCl)NCCCO1 (stereo not drawn) [Cyclophosphamide, reference compound] | 82.6±1.8 | 14±0.3 |  |  |  |  |  |  |  |  |  |  |  |  |  |  |  | 
CC1CCN(CC(=O)Nc2c(Cl)cccc2Cl)CC1 [LIA, N-(2,6-dichlorophenyl)-2-(4-methyl-1-piperidinyl)acetamide] |  |  | does not modify cardiovascular responses | 335.1 ±85.7 ppm | not toxic | 5.8±1.9 ^⁎^, ^# | 20.7±1.6 | not genotoxic | 0/3 | 0/3 | 3/3 | 0/3 | 0/3 | 0/3 | 3/3 | Neither LIA nor lidocaine produced visible macroscopically damage | not toxic | 800 mg/kg
